Test [1] has as its system HL-60. Nature of the test: Antiproliferative activity against human HL60 cells. Format: functional, cell-based.
Test [2] concerns HL-60. In words: Proapoptotic effect in human HL60 cells at 10 uM. In kind it is functional, cell-based.
In test [3] the test system is HL-60. In words: Cell cycle arrest in human HL60 cells assessed as increase in preG1 fraction relative to control. In kind it is functional.
Test [4] concerns HL-60. In words: Proapoptotic effect in human HL60 cells at 500 uM. Format: functional, cell-based.

Active and inactive are the calls of the source. The rule behind the calls is not given here. Bounds are passed on as bounds.

In the test with HL-60 [1], `c1ccc(Nc2ccnc3[nH]ccc23)cc1` showed an IC50 of 23.5 µM. For the same compound, the outcome in the test on HL-60 [2] was Active. Further, the Activity with HL-60 [3] was 39.9%.

As to `c1coc(CNc2ncnc3[nH]cnc23)c1` [KINETIN], the IC50 in the test on HL-60 [1] came out at 21.9 µM.

In the test with HL-60 [1], `c1ccc(CNc2ccnc3[nH]ccc23)cc1` registered an IC50 of 12.6 µM. Also, in the test on HL-60 [2], the result was Active.

As to `Cn1ccc2c(NCc3ccccc3)ccnc21`, the result in the test on HL-60 [4] was Active. The IC50 in the test on HL-60 [1] was > 100 µM.

`Cn1ccc2c(NCCc3ccccc3)ccnc21`: the outcome in the test on HL-60 [4] was Active. For the same compound, the IC50 in the test with HL-60 [1] is > 100 µM.

As for `c1ccc(CCNc2ccnc3[nH]ccc23)cc1`, the IC50 in the test with HL-60 [1] is 23.7 µM. In the test on HL-60 [2], the result was Active.

On to `c1ccc(CNc2ncnc3[nH]cnc23)cc1` [6-BENZYLAMINOPURINE], for which, in the test with HL-60 [1], the IC50 is > 100 µM.

On to `Cn1ccc2c(N3CCN(c4ccccc4)CC3)ccnc21`, for which the outcome in the test with HL-60 [4] was Active. In addition, in the test on HL-60 [1], the IC50 is > 100 µM.

Turning to `c1ccc(N2CCN(c3ccnc4[nH]ccc34)CC2)cc1`, in the test with HL-60 [1], the 50% inhibitory concentration (IC50) stood at 23.6 µM. Also, the outcome with HL-60 [2] was Active.

For `Cn1ccc2c(Nc3ccccc3)ccnc21`, the result in the test with HL-60 [4] was Active. Moreover, the IC50 in the test on HL-60 [1] is > 100 µM.

What is called IC50 is the midpoint of a concentration-inhibition curve. Lower therefore signals greater potency.

The record behind these values is ChEMBL document CHEMBL1144616, “Synthesis and biological evaluation of 7-azaindole derivatives, synthetic cytokinin analogues” (Bioorg Med Chem Lett, 2007).
